# Values quoted from earlier work in US10485808B2, “Selective progesterone receptor modulators (SPRM) and stabilized estrogen level in patient” (BAYER PHARMA AKTIENGESELLSCHAFT, priority 2017, dated 2019).
# Read-outs that look alike come from different tables or passages of the source.
# System: patients with Uterine Fibroids (UF)
# Details: cited from earlier work; for Patients with moderate to severe hot flushes: 12-13 weeks of treatment; for Serum estradiol levels after treatment: after 12-13 weeks treatment
compound,measurement,setting,value
CC(=O)O[C@]1(C(C)=O)CC[C@H]2[C@@H]3CCC4=CC(=O)CCC4=C3[C@@H](c3ccc(N(C)C)cc3)C[C@@]21C [Ulipristal acetate],Patients with moderate to severe hot flushes,5 mg/day,11%
same,Serum estradiol levels after treatment,5 mg/day,64 pg/mL
same,Amenorrhoea rate (secondary endpoint),5 mg/day,75%
same,Hot flushes of any severity,5 mg,26%
same,Patients with moderate to severe hot flushes,10 mg/day,10%
same,Serum estradiol levels after treatment,10 mg/day,61 pg/mL
same,Amenorrhoea rate (secondary endpoint),10 mg/day,89%
same,Hot flushes of any severity,10 mg,24%
